Experimental data published in PubChem BioAssay (NCI).
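Tested at 5 concentrations; 48 h exposure; 96-well plates; endpoints linearly interpolated, else capped at highest concentration. At the TGI there is no net growth.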

What was measured:
Assay in all cases: NCI tumour cell line growth inhibition, 48 h
786-0 renal = system: 786-0 renal
A549 NSCLC = system: A549 NSCLC
ACHN renal = system: ACHN renal
BT-549 breast = system: BT-549 breast
CAKI-1 renal = system: CAKI-1 renal
COLO 205 colon = system: COLO 205 colon
EKVX NSCLC = system: EKVX NSCLC
HCC-2998 colon = system: HCC-2998 colon
HCT-116 colon = system: HCT-116 colon
HCT-15 colon = system: HCT-15 colon
HOP-62 NSCLC = system: HOP-62 NSCLC
HS 578T breast = system: HS 578T breast
HT29 colon = system: HT29 colon
IGROV1 ovarian = system: IGROV1 ovarian
K-562 leukemia = system: K-562 leukemia
KM12 colon = system: KM12 colon
LOX IMVI melanoma = system: LOX IMVI melanoma
M14 melanoma = system: M14 melanoma
MALME-3M melanoma = system: MALME-3M melanoma
MCF7 breast = system: MCF7 breast
MDA-MB-231 breast = system: MDA-MB-231 breast
MDA-MB-435 = system: MDA-MB-435
MDA-N = system: MDA-N
MOLT-4 leukemia = system: MOLT-4 leukemia
NCI-H226 lung = system: NCI-H226 lung
NCI-H23 lung = system: NCI-H23 lung
NCI-H460 lung = system: NCI-H460 lung
NCI-H522 lung = system: NCI-H522 lung
NCI/ADR-RES ovarian = system: NCI/ADR-RES ovarian
OVCAR-3 ovarian = system: OVCAR-3 ovarian
OVCAR-4 ovarian = system: OVCAR-4 ovarian
OVCAR-5 ovarian = system: OVCAR-5 ovarian
OVCAR-8 ovarian = system: OVCAR-8 ovarian
PC-3 prostate = system: PC-3 prostate
RPMI-8226 leukemia = system: RPMI-8226 leukemia
SF-268 CNS = system: SF-268 CNS
SF-295 CNS = system: SF-295 CNS
SF-539 CNS = system: SF-539 CNS
SK-MEL-2 melanoma = system: SK-MEL-2 melanoma
SK-MEL-28 melanoma = system: SK-MEL-28 melanoma
SK-MEL-5 melanoma = system: SK-MEL-5 melanoma
SK-OV-3 ovarian = system: SK-OV-3 ovarian
SN12C renal = system: SN12C renal
SNB-19 CNS = system: SNB-19 CNS
SNB-75 CNS = system: SNB-75 CNS
SR leukemia = system: SR leukemia
SW-620 colon = system: SW-620 colon
T-47D breast = system: T-47D breast
TK-10 renal = system: TK-10 renal
U251 CNS = system: U251 CNS
UACC-257 melanoma = system: UACC-257 melanoma
UACC-62 melanoma = system: UACC-62 melanoma
UO-31 renal = system: UO-31 renal

Measured: TGI

COP1(=O)OCc2cnccc2O1 (stereo not drawn)
> 100 µM: all assays above
